From publication PMC11062899, “De novo development of small cyclic peptides that are orally bioavailable” (Nature Chemical Biology, 2023)
Values joined by “and” are separate entries in the source; they are usually repeats but may differ in a detail not shown here. Equal entries are not always repeated. Where two headings read alike, the source gives them in different places.

How the values were obtained:
human α-thrombin = human α-thrombin (Homo sapiens, UniProt P00734); assay: Protease inhibition, Ki for human α-thrombin (fluorogenic substrate Z-Gly-Gly-Arg-AMC); format: biochemical; settings: for Human alpha thrombin inhibition, slope normalized to DMSO: replicates R1-R3
Procedure, shortened: (§1)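 Inhibition was measured as AMC fluorescence from 50 μM substrate, monitored for 30 min at 25 °C, relative to a peptide-free control. Human and rat enzymes were present at 2 nM and 3 nM final, respectively, in 50 mM Tris-HCl pH 7.4, 150 mM NaCl, 10 mM MgCl2, 1 mM CaCl2. Ki derives from fitted IC50 via Cheng–Prusoff.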

rat α-thrombin = molecular target: T1, rat α-thrombin (Rattus norvegicus, UniProt P18292); assay: Protease inhibition, Ki for rat α-thrombin (fluorogenic substrate Z-Gly-Gly-Arg-AMC); format: biochemical; settings: for Slope normalized to DMSO (proteolytic substrate cleavage over time) / Rat alpha thrombin inhibition, slope normalized to DMSO: replicates R1-R3
T1 construct: rat α-thrombin (Molecular Innovations) were used at final concentrations of 2 nM and 3 nM; purchased Molecular Innovations
Procedure, shortened: as §1

porcine pepsin = molecular target: T2, porcine pepsin (Sus scrofa, UniProt P00791); assay: Peptide stability in simulated gastric fluid (SGF); format: in vitro ADME
T2 construct: 0.32 g of porcine pepsin (Sigma-Aldrich, P7125) was dissolved under gentle agitation; purchased Sigma-Aldrich P7125
T2 sequence (P00791 60-385): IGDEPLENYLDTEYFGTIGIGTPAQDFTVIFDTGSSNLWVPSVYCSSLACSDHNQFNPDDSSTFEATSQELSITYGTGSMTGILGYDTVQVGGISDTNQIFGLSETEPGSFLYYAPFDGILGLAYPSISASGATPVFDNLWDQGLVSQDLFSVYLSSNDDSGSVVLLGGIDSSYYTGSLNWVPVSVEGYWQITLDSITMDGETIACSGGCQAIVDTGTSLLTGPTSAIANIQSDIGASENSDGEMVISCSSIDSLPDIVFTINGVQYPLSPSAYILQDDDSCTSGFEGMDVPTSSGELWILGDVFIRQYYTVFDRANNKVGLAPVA
Procedure, shortened: (§2)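 Peptide from a 1 mM DMSO stock was added to fluid pre-warmed at 37 °C. SGF was pH 1.2 NaCl with porcine pepsin (0.32 g per 100 ml), and SIF was pH 6.8 potassium phosphate with porcine pancreatin (1 g per 100 ml). Supernatant peptide was quantified by LC–MS, with residual expressed as T1/T0.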

[1] = Peptide stability in simulated intestinal fluid (SIF); format: in vitro ADME, porcine; settings: pig, simulated gi fluid; 8 h, 37 °C, pH 6.8; read-out: Proteolytic stability: SIF (8 h) % remaining
Procedure, shortened: as §2

porcine pancreatin = assay: as above; format: in vitro ADME; settings: after 8 h vs 0 h (TIC)
Procedure, shortened: as §2

[2] = Passive artificial membrane permeability (PAMPA)
[3] = peptide 1.33E+02 uM, slope of proteolytic substrate cleavage over time

## CN1CCC(=O)NCCSCCS(=O)(=O)CCSC[C@H](NC(=O)c2ccc(Cl)s2)C(=O)N[C@@H](Cc2ccccc2)C1=O [compound 14]
Human α-thrombin; human alpha thrombin, individual replicates R1-R3, read-out: IC50
  IC50: 1240 nM and 961 nM and 880 nM
Human α-thrombin; human alpha thrombin, individual replicates R1-R3, read-out: Ki
  Ki: 952 nM and 740 nM and 678 nM
Human α-thrombin; human alpha thrombin, average of R1-R3, read-out: Ki Average
  Ki: 790 nM
Human α-thrombin; peptide 1.02E-03 uM
  Human alpha thrombin inhibition, slope normalized to DMSO: 99.6 and 102.5 and 100.4
Human α-thrombin; peptide 1.04E+00 uM
  Human alpha thrombin inhibition, slope normalized to DMSO: 62.7 and 63.2 and 64.7
Human α-thrombin; peptide 1.27E-04 uM
  Human alpha thrombin inhibition, slope normalized to DMSO: 101.4 and 100.0 and 103.5
Human α-thrombin; peptide 1.30E-01 uM
  Human alpha thrombin inhibition, slope normalized to DMSO: 93.3 and 94.2 and 91.8
Human α-thrombin; [3]
  Human alpha thrombin inhibition, slope normalized to DMSO: 35.6 and 42.1 and 48.0
Human α-thrombin; peptide 1.63E-02 uM
  Human alpha thrombin inhibition, slope normalized to DMSO: 100.3 and 97.9 and 93.0
Human α-thrombin; peptide 1.67E+01 uM
  Human alpha thrombin inhibition, slope normalized to DMSO: 19.0 and 23.6 and 27.7
Human α-thrombin; peptide 2.03E-03 uM
  Human alpha thrombin inhibition, slope normalized to DMSO: 98.3 and 97.0 and 102.8
Human α-thrombin; peptide 2.08E+00 uM
  Human alpha thrombin inhibition, slope normalized to DMSO: 53.1 and 49.4 and 51.7
Human α-thrombin; peptide 2.54E-04 uM
  Human alpha thrombin inhibition, slope normalized to DMSO: 100.9 and 99.7
Human α-thrombin; peptide 2.60E-01 uM
  Human alpha thrombin inhibition, slope normalized to DMSO: 86.0 and 78.5 and 87.5
Human α-thrombin; peptide 3.18E-05 uM
  Human alpha thrombin inhibition, slope normalized to DMSO: 105.6 and 95.1 and 100.8
Human α-thrombin; peptide 3.26E-02 uM
  Human alpha thrombin inhibition, slope normalized to DMSO: 99.1 and 97.3 and 99.5
Human α-thrombin; peptide 3.33E+01 uM
  Human alpha thrombin inhibition, slope normalized to DMSO: 14.9 and 14.8 and 17.4
Human α-thrombin; peptide 4.07E-03 uM
  Human alpha thrombin inhibition, slope normalized to DMSO: 104.1 and 99.4 and 102.2
Human α-thrombin; peptide 4.17E+00 uM
  Human alpha thrombin inhibition, slope normalized to DMSO: 44.0 and 45.0 and 45.3
Human α-thrombin; peptide 5.09E-04 uM
  Human alpha thrombin inhibition, slope normalized to DMSO: 89.0 and 97.2 and 100.9
Human α-thrombin; peptide 5.21E-01 uM
  Human alpha thrombin inhibition, slope normalized to DMSO: 80.8 and 75.1 and 78.9
Human α-thrombin; peptide 6.36E-05 uM
  Human alpha thrombin inhibition, slope normalized to DMSO: 99.9 and 99.1 and 102.2
Human α-thrombin; peptide 6.51E-02 uM
  Human alpha thrombin inhibition, slope normalized to DMSO: 97.0 and 92.8 and 96.0
Human α-thrombin; peptide 6.67E+01 uM
  Human alpha thrombin inhibition, slope normalized to DMSO: 27.9 and 32.4 and 47.7
Human α-thrombin; peptide 8.14E-03 uM
  Human alpha thrombin inhibition, slope normalized to DMSO: 99.8 and 97.9 and 99.0
Human α-thrombin; peptide 8.33E+00 uM
  Human alpha thrombin inhibition, slope normalized to DMSO: 29.9 and 28.6 and 29.1
Rat α-thrombin; average of R1-R3, read-out: Ki Average
  Ki: 357 nM
Rat α-thrombin; peptide 1.02E-03 uM
  Slope normalized to DMSO (proteolytic substrate cleavage over time): 100.5 and 96.1 and 105.7
Rat α-thrombin; peptide 1.04E+00 uM
  Slope normalized to DMSO (proteolytic substrate cleavage over time): 47.3 and 45.5 and 46.2
Rat α-thrombin; peptide 1.27E-04 uM
  Slope normalized to DMSO (proteolytic substrate cleavage over time): 98.2 and 95.5 and 104.0
Rat α-thrombin; peptide 1.30E-01 uM
  Slope normalized to DMSO (proteolytic substrate cleavage over time): 88.1 and 88.0 and 95.1
Rat α-thrombin; [3]
  Rat alpha thrombin inhibition, slope normalized to DMSO: 29.3 and 31.0 and 24.5
Rat α-thrombin; peptide 1.63E-02 uM
  Slope normalized to DMSO (proteolytic substrate cleavage over time): 95.3 and 90.7 and 94.2
Rat α-thrombin; peptide 1.67E+01 uM
  Rat alpha thrombin inhibition, slope normalized to DMSO: 11.1 and 9.5 and 16.8
Rat α-thrombin; peptide 2.03E-03 uM
  Slope normalized to DMSO (proteolytic substrate cleavage over time): 96.6 and 95.4 and 92.0
Rat α-thrombin; peptide 2.08E+00 uM
  Rat alpha thrombin inhibition, slope normalized to DMSO: 34.7 and 33.7 and 44.2
Rat α-thrombin; peptide 2.54E-04 uM
  Slope normalized to DMSO (proteolytic substrate cleavage over time): 95.8 (2×) and 100.3
Rat α-thrombin; peptide 2.60E-01 uM
  Slope normalized to DMSO (proteolytic substrate cleavage over time): 75.1 and 76.7 and 74.0
Rat α-thrombin; peptide 3.18E-05 uM
  Slope normalized to DMSO (proteolytic substrate cleavage over time): 100.9 and 96.6 and 106.2
Rat α-thrombin; peptide 3.26E-02 uM
  Slope normalized to DMSO (proteolytic substrate cleavage over time): 100.1 and 92.2 and 91.8
Rat α-thrombin; peptide 3.33E+01 uM
  Rat alpha thrombin inhibition, slope normalized to DMSO: 8.8 and 9.0 and 13.6
Rat α-thrombin; peptide 4.07E-03 uM
  Slope normalized to DMSO (proteolytic substrate cleavage over time): 100.3 and 98.9 and 95.8
Rat α-thrombin; peptide 4.17E+00 uM
  Rat alpha thrombin inhibition, slope normalized to DMSO: 29.3 and 26.2 and 29.7
Rat α-thrombin; peptide 5.09E-04 uM
  Slope normalized to DMSO (proteolytic substrate cleavage over time): 99.8 and 96.7 and 105.4
Rat α-thrombin; peptide 5.21E-01 uM
  Slope normalized to DMSO (proteolytic substrate cleavage over time): 62.1 and 60.1 and 59.5
Rat α-thrombin; peptide 6.36E-05 uM
  Slope normalized to DMSO (proteolytic substrate cleavage over time): 99.5 and 99.0 and 105.5
Rat α-thrombin; peptide 6.51E-02 uM
  Slope normalized to DMSO (proteolytic substrate cleavage over time): 92.1 and 90.2 and 94.2
Rat α-thrombin; peptide 6.67E+01 uM
  Rat alpha thrombin inhibition, slope normalized to DMSO: 22.0 and 23.9 and 12.4
Rat α-thrombin; peptide 8.14E-03 uM
  Slope normalized to DMSO (proteolytic substrate cleavage over time): 88.9 and 94.1 and 99.5
Rat α-thrombin; peptide 8.33E+00 uM
  Rat alpha thrombin inhibition, slope normalized to DMSO: 16.6 and 15.4 and 23.2
Rat α-thrombin; single replicates R1-R3, read-out: IC50
  IC50: 640 nM and 631 nM and 666 nM
Rat α-thrombin; single replicates R1-R3, read-out: Ki
  Ki: 354 nM and 349 nM and 368 nM
Porcine pepsin; after 8 h vs 0 h (TIC), average of R1-R3
  SGF stability, Residual peptide Average: 95.02
Porcine pepsin; after 8 h vs 0 h (TIC), single replicates R1-R3
  SGF stability, Residual peptide: 100.52 and 97.58 and 86.97
Porcine pepsin; pig, simulated gi fluid, 8 h, 37 °C, pH 1.2, read-out: Proteolytic stability: SGF (8 h) % remaining
  remaining at 8 h: 95 ± 7%
[1]
  remaining at 8 h: 87 ± 11%
Porcine pancreatin; average of R1-R3
  SIF stability, Residual peptide Average: 87.22
Porcine pancreatin; single replicates R1-R3
  SIF stability, Residual peptide: 90.22 and 74.69 and 96.74
[2]; 50 μM, 12–18 h, acceptor concentration relative to equilibrium
  PAMPA permeability: % permeability: 1.27 ± 0.67%
[2]; PAMPA, pH 7.4
  Papp at 50 μM: 0.0776 ×10⁻⁶ cm/s
[2]; PAMPA, average of R1-R3
  Permeability% Average: 1.3%
[2]; PAMPA, replicate R1, TIC of top well sample relative to sample at theoretical equilibrium
  Permeability% R1: 2.04%
[2]; PAMPA, replicate R3, TIC of top well sample relative to sample at theoretical equilibrium
  Permeability% R3: 1.01%
